Assay results published in the supplement of paper PMC11208160.

test: recombinant UMI read abundance after kanamycin selection (control-corrected) (log10(CPM+1)); higher = more efficient recombination; extreme values may be limits of the assay; sequences stand for … in AGTGCAGAGAAAATCGGCCAGTTTTCTCTGCCTGCAGTCCGCATGCCGTGGGACCCCTTGGGTTCTAACCTGTTGCCTAGATTTATGCAGCGGACTGCCTTTCTCCCAAAGTGATAAACCGG…AGGTTGGTTTCACT; site = the 11-nt donor
Description: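 Pooled E. coli donor-specificity screen for the IS621 bridge recombinase. Each library member carries a reprogrammed 11-nt donor and a full-length LE bridge RNA expressed in cis from the natural promoter, with a paired donor-binding loop (8-nt LDG + 4-nt RDG) and a target-binding loop fixed to T5. It is co-electroporated with a T5 target plasmid; recombinase is induced with 0.07 mM IPTG and recombinants are selected on kanamycin. UMIs are counted as CPM, averaged over two biological replicates and corrected by the unselected control. Molecule = full bridge RNA written as DNA, built from the T5 scaffold: LDG = donor specificity nt 1-8, RDG = reverse complement of nt 8-11.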
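Note: IS621 bridge recombinase in Escherichia coli cells against a fixed T5 target plasmid.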

Sequence	recombinant UMI read abundance (log10)
ACCCAATCATGGACCGGTTTTCCCGGTAATCCGTATTTGGA (site ACCCAATCTTC)	2.04
GAGTCGACATGGACCGGTTTTCCCGGTAATCCGTATTTGGG (site GAGTCGACTCC)	0.044
AGCCAAGCATGGACCGGTTTTCCCGGTAATCCGTATTTGAG (site ACCCAAGCTCT)	0.641
ACCCTTACATGGACCGGTTTTCCCGGTAATCCGTATTTGAG (site ACCCTTACTCT)	1.66
GGAAGTACATGGACCGGTTTTCCCGGTAATCCGTATTTGAC (site GGAAGTACTGT)	2.57
AGGCCGGCATGGACCGGTTTTCCCGGTAATCCGTATTTGGC (site GGGCCGGCTGC)	0
ACGAGAACATGGACCGGTTTTCCCGGTAATCCGTATTTGAG (site ACGAGAACTCT)	2.59
GCGAAGCCATGGACCGGTTTTCCCGGTAATCCGTATTTGCG (site GCGAAGCCTCC)	0.0276
AGGAAGACATGGACCGGTTTTCCCGGTAATCCGTATTTGCA (site AGAATGACTTG)	0.777
CCGTGAGCATGGACCGGTTTTCCCGGTAATCCGTATTTGTG (site CCGTTAGCTCA)	0.00536
ACGCATCCATGGACCGGTTTTCCCGGTAATCCGTATTTGAC (site ACTCATCCTGT)	0
TTCTGAGCATGGACCGGTTTTCCCGGTAATCCGTATTTGCT (site TTCTGAGCTAG)	0.802
TGAAAATCATGGACCGGTTTTCCCGGTAATCCGTATTTGAT (site TGAAAATCTAT)	0
CTACTAACATGGACCGGTTTTCCCGGTAATCCGTATTTGGT (site CTACTAACTGC)	0
TGAAAGACATGGACCGGTTTTCCCGGTAATCCGTATTTGCA (site TGAAAGACTTG)	2.45
CTAGTAGCATGGACCGGTTTTCCCGGTAATCCGTATTTGAC (site CTAGTACCTGT)	0
GGCCACTCATGGACCGGTTTTCCCGGTAATCCGTATTTGTT (site GGCCACTCTAA)	1.33
CAATTCCCATGGACCGGTTTTCCCGGTAATCCGTATTTGTT (site CAATTCCCTAT)	1.15
GAGGTCACATGGACCGGTTTTCCCGGTAATCCGTATTTGAT (site GAGGTCACTAT)	1.35
CTATAGCCATGGACCGGTTTTCCCGGTAATCCGTATTTGCG (site CTATAGCCTCG)	1.01
CCTAATACATGGACCGGTTTTCCCGGTAATCCGTATTTGCC (site CCTAATACTGC)	0
AGGAAGACATGGACCGGTTTTCCCGGTAATCCGTATTTGCA (site AAGAACACTTG)	0
CTCCCTACATGGACCGGTTTTCCCGGTAATCCGTATTTGAG (site CTACCTACTCT)	0.0126
CCCTTGCCATGGACCGGTTTTCCCGGTAATCCGTATTTGCC (site CCCTTGCCTGG)	0

Sequence	recombinant UMI read abundance (log10)
CATTCGCCATGGACCGGTTTTCCCGGTAATCCGTATTTGAG (site CATTCGCCTCT)	0.00436
AGCGGATCATGGACCGGTTTTCCCGGTAATCCGTATTTGAG (site AGCGGATCTCT)	2.33
GTAAGCCCATGGACCGGTTTTCCCGGTAATCCGTATTTGTC (site GTAAGCCCTGA)	1.98
CCCGGTCCATGGACCGGTTTTCCCGGTAATCCGTATTTGCA (site ACCGGTCCTTG)	0
GATCTCACATGGACCGGTTTTCCCGGTAATCCGTATTTGAT (site GATCTCACTAT)	0.574
CGGACATCATGGACCGGTTTTCCCGGTAATCCGTATTTGCT (site CGGACACCTAG)	0
CGTTTGACATGGACCGGTTTTCCCGGTAATCCGTATTTGAG (site CGTTTGACTCT)	1.03
AGAGTATCATGGACCGGTTTTCCCGGTAATCCGTATTTGCA (site ACAGTATCTTG)	2.7
CATTCAGCATGGACCGGTTTTCCCGGTAATCCGTATTTGCA (site CATTCAGCTTG)	1.05
GGTCCAGCATGGACCGGTTTTCCCGGTAATCCGTATTTGTA (site GGTCCAACTTA)	0
CAGTCGACATGGACCGGTTTTCCCGGTAATCCGTATTTGGG (site CAGTCGCCTCC)	0.0239
CACTTGGCATGGACCGGTTTTCCCGGTAATCCGTATTTGGA (site CACATGGCTTC)	0.0226
AGGAAGACATGGACCGGTTTTCCCGGTAATCCGTATTTGCA (site AGGATGACTTA)	0.0119
TGTACACCATGGACCGGTTTTCCCGGTAATCCGTATTTGCC (site TGTACACCTGC)	0
CTAGCAGCATGGACCGGTTTTCCCGGTAATCCGTATTTGCT (site CGAGCAGCTAG)	0
AGGAAGACATGGACCGGTTTTCCCGGTAATCCGTATTTGCA (site AGGAAGGCTAG)	0
GCAGTATCATGGACCGGTTTTCCCGGTAATCCGTATTTGCA (site ACAGTATCTTG)	2.95
TACCCTTCATGGACCGGTTTTCCCGGTAATCCGTATTTGGT (site TAACCTTCTAC)	0.00354
GGCCACCCATGGACCGGTTTTCCCGGTAATCCGTATTTGTT (site GGCCACGCTAA)	0.0127
CCTAATACATGGACCGGTTTTCCCGGTAATCCGTATTTGGG (site CCTAATACTTC)	0.0102
ACTAAAGCATGGACCGGTTTTCCCGGTAATCCGTATTTGAT (site TCTAAAGCTAT)	0.855
CGGCATCCATGGACCGGTTTTCCCGGTAATCCGTATTTGTT (site CGGGATCCTAA)	0.0034
GCCCCGCCATGGACCGGTTTTCCCGGTAATCCGTATTTGTA (site GCCGCGCCTTA)	0.0226
TCATAGTCATGGACCGGTTTTCCCGGTAATCCGTATTTGCA (site TCATACTCTTG)	0.653

Sequence	recombinant UMI read abundance (log10)
TGTTCCCCATGGACCGGTTTTCCCGGTAATCCGTATTTGTC (site TGTTCCCCTAA)	0.0126
CTCCCTTCATGGACCGGTTTTCCCGGTAATCCGTATTTGAG (site CTCCCTCCTCT)	0.0285
TGGACTACATGGACCGGTTTTCCCGGTAATCCGTATTTGAC (site CGGACTACTGT)	0
AGGAAGACATGGACCGGTTTTCCCGGTAATCCGTATTTGCA (site AGTAACACTTG)	0.00423
CCGTCGGCATGGACCGGTTTTCCCGGTAATCCGTATTTGTG (site CCGTCGGCTCA)	0.0197
CGATCGACATGGACCGGTTTTCCCGGTAATCCGTATTTGTT (site CGACCGACTAA)	0.509
TGGTAGGCATGGACCGGTTTTCCCGGTAATCCGTATTTGGT (site TGATAGGCTAC)	0.0183
CCTAAATCATGGACCGGTTTTCCCGGTAATCCGTATTTGAT (site CCTAAATCTAT)	0.00669
GCACATCCATGGACCGGTTTTCCCGGTAATCCGTATTTGAC (site TCACATCCTGT)	0.745
ACAGTAGCATGGACCGGTTTTCCCGGTAATCCGTATTTGCA (site ACAGTATCTTG)	2
GATTTGACATGGACCGGTTTTCCCGGTAATCCGTATTTGAC (site GATTAGACTGT)	0
ATGAAGGCATGGACCGGTTTTCCCGGTAATCCGTATTTGGC (site ATGCAGGCTGC)	1.72
ATAAGTCCATGGACCGGTTTTCCCGGTAATCCGTATTTGAC (site ATAAGTCCTGT)	2.13
ACCCATTCATGGACCGGTTTTCCCGGTAATCCGTATTTGGA (site ACCCATTCTTC)	1.53
CGGAATTCATGGACCGGTTTTCCCGGTAATCCGTATTTGCT (site CGGAATCCTAA)	0.00849
GGATGGCCATGGACCGGTTTTCCCGGTAATCCGTATTTGCA (site GGATGGCCTTG)	0.0128
GTGGAGCCATGGACCGGTTTTCCCGGTAATCCGTATTTGTG (site GTGGAGCCTCA)	0.484
GTAGGTACATGGACCGGTTTTCCCGGTAATCCGTATTTGAT (site GTAGGTACTGT)	0.596
ATAAGGCCATGGACCGGTTTTCCCGGTAATCCGTATTTGAC (site ATAGGGCCTGT)	0
CCTAATGCATGGACCGGTTTTCCCGGTAATCCGTATTTGAT (site CCTAAAGCTAT)	0
GCTTACACATGGACCGGTTTTCCCGGTAATCCGTATTTGCG (site GCTTACACTCG)	1.72
CCCTACACATGGACCGGTTTTCCCGGTAATCCGTATTTGTA (site CCCTACACTTA)	0.0328
CTCCCTACATGGACCGGTTTTCCCGGTAATCCGTATTTGAG (site CACCCTACTCT)	0.112
CCATCATCATGGACCGGTTTTCCCGGTAATCCGTATTTGCT (site CTATCATCTAG)	0.0047
